Test results from patent publication US20240099295A1, “CELL TREATMENT AGENT” (AYA Inc., priority 2021, published 2024).

What was measured:
Assay type in all cases: cell-based
[1] = system: Chinese hamster fibroblast; assay: Cell protective effect: cell survival during preservation (trypan blue excretion test); settings: Chinese hamster fibroblasts; same preservation experiments; values not given
Description: Using a normal serum-free cell culture solution without FBS or a Ringer's solution (Otsuka Pharmaceutical Co., Ltd., Lactec Injection, Japanese Pharmacopoeia, Sodium L-lactate Ringer's solution) as a conditioning solution for use, for example, in preservation and transportation of cells, sodium alginate (Na alginate) (Fuji Chemical Industry Co., Ltd. Snow Algin SSL, viscosity of 1% aqueous solution is 30 mPa·s at 20° C.) was added to the conditioning solution in the concentrations shown in Table 1 to prepare cell preservation solutions. To each cell preservation solution, the above-described cells were added at a concentration of 10^6 cells/ml to satisfy the conditions shown in Table 1, and the resultant solution was left to stand in a room at normal temperature (22° C.) for 24 hours, and then whether cells were alive or dead was determined, and rates of viable cells (average survival rate (%)) were calculated and compared. Cell viability was determined by the trypan blue excretion test that is the ordinary method of confirming cell viability. The excretion test was performed according to the method described in “Denizot F., et al., Rapid colorimetric assay for cell growth and survival. Modifications to the tetrazolium dye procedure giving improved sensitivity and reliability. J. Immunol. Methods, 89, 271-277 (1986)”. The results are of N=4.
The average survival rate (%) was determined in the same manner as in Experimental Example (1-1-1) except that the preservation conditions were changed to leaving still for 72 hours in a refrigerator at a set temperature of 4° C. The results are of N=4.

[2] = system: Rat corneal epithelial cell; assay: Cell dormancy effect: cell cycle analysis by flow cytometry; settings: serum-free cell culture solution, cultured 48 hours at 37° C.
Description: Sodium alginate (sodium alginate first grade reagent, available from FUJIFILM Wako Pure Chemical Corporation, viscosity of 1% aqueous solution is 120 mPa·s at 20° C.), DS (the same as in Experimental Example 1), or sodium heparin (the same as in Experimental Example 1) was used as an active ingredient in the cell treatment agent, and whether cell dormancy occurs or not by action of the active ingredient was examined by comparing the activities of cell division and proliferation which are the most general cell activities in the following manner.
The cell cycle was analyzed by flow cytometry according to the method described in known literature (Piotr Pozarowski and Zbigniew Darzynkiewicz, “Analysis of Cell Cycle by Flow Cytometry,” Methods in Molecular Biology, vol. 281: Checkpoint Controls and Cancer, Volume 2), and frequency of cell division and proliferation was compared between different active ingredients of the cell treatment agent. A specific method is as follows. Using a normal serum-free cell culture solution as a conditioning solution (comparison reference (a)), (b) a cell preservation solution in which sodium alginate (Na alginate) is added to the conditioning solution in a concentration of 2.5 mg/ml, (c) a cell preservation solution in which DS is added to the conditioning solution in a concentration of 0.1 mg/ml, and (d) a cell preservation solution in which heparin sodium (heparin Na) is added to the conditioning solution in a concentration of 50 units/ml, were prepared. To these cell preservation solutions, rat corneal epithelial cells were added at a cell concentration of 10^5 cells/ml and cultured for 48 hours under normal cell culture conditions (37° C., CO2 concentration of 5%, humidity of 100%). The number of cells in each culture was determined by cell cycle analysis using flow cytometry to determine the number of cells in each cell cycle, and the percentage of cells in the S phase, G2 phase, and M phase, which are considered as the periods of the cell division and proliferation process, was compared with the percentage of cells in the G0 phase and G1 phase, which are considered as other periods. The results are of N=4.

[3] = system: rat corneal epithelial cells; assay: Re-adhesion of detached and suspended cells to calcium phosphate film (F-actin fluorescent staining)
Excerpt: Whether the cells having been detached and suspended as described above were re-adhered by calcium ions was examined. Part of the bottom of the culture dish was coated with a slurry of calcium phosphate fine powder mixed with distilled water and dried in an oven to separately prepare a culture dish in which a film of fine powder of calcium phosphate was stuck to the bottom of the dish. Then, to the culture dish with the calcium phosphate film and the culture dish without the film (control), a cell culture solution containing the detached and suspended cells as described above was added, the culture dishes were placed on the base of a shaker (product name: Laboshaker Model BC-740, available from BIO CRAFT Corporation), the shaking intensity was set to the lowest level, the shaking frequency was set to 4 times/min, and the cells were cultured under normal cell culture conditions (37° C., CO2 concentration of 5%, humidity of 100%) for 24 hours while the culture dishes were gently shaken. The culture solution in each culture dish was then removed, and the culture dishes were gently washed with 10% FBS cell culture solution, and then viable cells adhered to the inner wall of the culture dishes were observed under a microscope (inverted fluorescence/visible microscope with cooled CCD camera, IX83, available from Olympus Corporation) by the fluorescent staining method of F-actin using viable cell staining by a fluorescent dye (CytoPainter F-actin Staining Kit, available from Abcam). The fluorescent staining method of F-action can be performed, for example, according to the method described in Vera D M, Robert J E, Ved P S, Orrin S and John S C, “Optimizing leading edge F-actin labeling using multiple actin probes, fixation methods and imaging modalities” BIOTECHNIQUES, VOL. 66, NO. 3, (2019), or in Michael M, Matthias P and Robert G “Actin visualization at a glance” n J. Cell Sci. 130, 525-530. (2017) doi:10.1242/jcs.20448.
In FIGS. 1 to 4, the part that looks white or gray is a viable cell group stained with the fluorescent dye.

[4] = system: Rat corneal epithelial cell; assay: Cell detaching and suspending effect under gentle shaking (Experimental Example 5); settings: cell culture solution containing 10% FBS, 37° C.
Description: In the same manner as in Experimental Example 4, rat corneal epithelial cells were sufficiently adhered to the culture dish wall which is a scaffold.
To the culture solutions in the culture dish on which cultured cells obtained in the manner as described above had adhered, each active ingredient was added in a concentration shown in Table 14, or no active ingredient was added. Each culture dish was then placed on the base of a shaker (product name: Laboshaker Model BC-740, available from BIO CRAFT Corporation), the shaking intensity was set to the lowest level, and the shaking frequency was set to 4 times/min, and cells were cultured under normal cell culture conditions (37° C., CO2 concentration of 5%, humidity of 100%) for 24 hours while each culture dish was gently shaken. Then, detachment and suspension of cells after 24 hours of culturing was observed. For determination of detachment and suspension, whether cells were detached from the dish wall and suspended under shaking of the culture dish was observed, and the case where 90% or more of the cells were detached and suspended was determined as “detached and suspended”, and “detached and suspended” cells were marked with “∘” and “undetached and unsuspended” cells were marked with “x”. The results are of N=4.

[5] = culture dish with calcium phosphate film, 24 hours culture under gentle shaking (FIGS. 1 and 2)
[6] = culture dish without calcium phosphate film (control), 24 hours culture under gentle shaking (FIGS. 3 and 4)

Row | Substance | Effect of improving cell viability (cell protective effect) [1] | Percentages of cells of each cell cycle: G0 phase + G1 phase ([2]; DS 0.1 mg/mL) [%] | Percentages of cells of each cell cycle: S phase + G2 phase + M phase ([2]; DS 0.1 mg/mL) [%] | Re-adhesion of detached and suspended viable cells [3, 5] | Re-adhesion of detached and suspended viable cells [3, 6] | Detachment at lapse of 24 hours after addition of active ingredient ([4]; DS 0.5 mg/mL) | Percentages of cells of each cell cycle: G0 phase + G1 phase ([2]; Heparin Na 50 units/mL) [%] | Percentages of cells of each cell cycle: S phase + G2 phase + M phase ([2]; Heparin Na 50 units/mL) [%] | Detachment at lapse of 24 hours after addition of active ingredient ([4]; Heparin Na 100 units/mL)
1 | dextran sulfate [DS] | the cell protective effect was also observed | 92.4 | 5.77 | numerous viable cells were observed adhering | a very small number of viable cells adhered | ∘ (“detached and suspended” cells were marked with “∘”) | – | – | –
2 | heparin sodium [Heparin Na, reference compound] | the cell protective effect was also observed | – | – | numerous viable cells were observed adhering | a very small number of viable cells adhered | – | 89.7 | 7.68 | ∘ (“detached and suspended” cells were marked with “∘”)
